Test results reported in PMC5874726, “Comparison Study of Two Differently Clicked ^18F-Folates—Lipophilicity Plays a Key Role” (Pharmaceuticals, 2018).

Experiments:
[1] = system: KB tumor-bearing mice; experiment: µPET imaging in KB tumor-bearing mice; type: in vivo, mouse; conditions: static scan 50-60 min p.i.
Description: (§1) All animal experiments were approved by the local ethical committee (permission no. 23177-07/G15-1-033). Balb/c and balb/c nude (Balb/c AnNRj-Foxn1nu) mice were kept on a folate-deficient rodent diet to reduce their blood level of folate to one found in humans. After 7 days of acclimatization, human KB tumor cells (2.5 x 10^6 cells in PBS) were inoculated in the right shoulder of each balb/c nude mouse. All in vivo treatments and imaging experiments were done under isoflurane anesthesia. Eleven or twelve days after inoculation, animals were intravenously injected with ^18F-DBCO-Folate and ^18F-Ala-Folate (5–8 MBq, 100–200 µL) via a lateral tail vein. […] PET/MRI-studies were performed on a nanoScan PET/MRI (Mediso, Budapest, Hungary). First MRI scans (Material Map for co-registration of the PET scan; 3D; GRE-EXT, FOV; slice thickness: 0.6 mm; TE: 2 ms; TR: 15 ms; flip angle: 25 deg) were acquired and then either a dynamic scan over 60 min starting with injection of the radiotracer or a static scan for 10 min after 50 min p.i. were performed. All mice, which underwent ex vivo biodistribution, were scanned first. Afterwards co-registered PET/MR images were analyzed via PMOD (version 3.6) and Inveon Research Workplace (version 4.2). For ex vivo biodistribution studies mice were euthanized 60 min p.i. and organs of interest were dissected, weighed, and measured in a γ-counter (PerkinElmer 2470 Wizard2, Perkin Elmer, Rodgau, Germany). The incorporated radioactivity was expressed as percentage of injected dose per gram of tissue (% ID/g).

[2] = system: KB-tumor bearing mice; experiment: Ex vivo biodistribution in KB-tumor bearing mice
Description: as §1

[3] = system: healthy balb/c mice; experiment: Ex vivo biodistribution in healthy balb/c mice; conditions: Balb/c, mouse, in vivo, 60 min
Description: as §1

[4] = system: FR-negative OC316 cells; experiment: Internalization studies in FR-negative OC316 cells; type: cell-based, human; conditions: blocked KB cells and FR-negative OC316 cells
Procedure: Two different temperatures (4 °C for receptor binding, 37 °C for receptor binding and internalization) and two different concentrations were assessed. […] Both radiofolates show a concentration as well as temperature depended increase of activity in the FR positive cells. […] This effect is not fully understood, but we presume the high lipophilicity in combination with the increased concentration being responsible for this high non-specific binding. […] Thus, about 90% of ^18F-DBCO-folate remained in solution, which is ideal for such a radiotracer assay set-up (see supporting information for pie chart of activity distribution, Figure S6). For ^18F-Ala-folate the overall receptor-bound and internalized fractions are similar to ^18F-DBCO-folate (see supporting information for pie chart of activity distribution, Figure S7).
As folate-receptor positive control, KB cells (derived from human cervical carcinoma; obtained from German Collection of Microorganisms and Cell Cultures), and OC316 cells (derived from human ovarian adenocarcinoma) as negative control were used. For FACS analysis, data of both cell lines see supporting information Figure S5. The cells were cultured in folate deficient RPMI 1640 medium containing 10% FCS, 1% penicillin-streptomycin and HEPES buffer (10 mM, 5 mL) grown at 37 °C in a humidified atmosphere containing 5% CO2. […]

[5] = LogD at pH 7.4 via shake-flask method (octanol/PBS); type: physicochemical; conditions: pH 7.4, shake-flask
Procedure: The lipophilicity was determined by shake flask method in an octanol/PBS mixture. Table 1 gives an overview of logD values for ^18F-Alakyne and ^18F-Ala-folate as well as for ^18F-DBCO and ^18F-DBCO-folate. […] The reduced lipophilicity is expected to be an indicator for less non-specific background signals and a higher renal clearance rate.

[6] = balb/c nude (Balb/c AnNRj-Foxn1nu), mouse, in vivo, 60 min

SMILES: Nc1nc2ncc(CNc3ccc(C(=O)NC(CCC(=O)NCCOCCOCCOCCn4cc(CNC(C[18F])C(=O)O)nn4)C(=O)O)cc3)nc2c(=O)[nH]1 (stereo not drawn) [^18F-Ala-folate]
- visualization of KB tumors in maximum intensity projection (MIP) PET images [1]: displayed the KB-tumor in the MIP
- tumor/blood ratio ([2]; 60 min p.i.): 10.11
- tumor/kidney ratio ([2]; 60 min p.i.): 0.12
- tumor/muscle ratio ([2]; 60 min p.i.): 7.64
- reduction of activity in the tumor in the blocked group [2, 6]: 85%
- tumor uptake relative to ^18F-DBCO-folate [2, 6]: 3 times
- uptake Appendix [2, 6]: 0.39 ± 0.22 %ID/g tissue
- uptake Blood [2, 6]: 0.17 ± 0.05 %ID/g tissue
- uptake Heart [2, 6]: 0.22 ± 0.09 %ID/g tissue
- uptake Inguinal lymph nodes [2, 6]: 0.57 ± 0.15 %ID/g tissue
- uptake Intestines (empty) [2, 6]: 3.42 ± 2.18 %ID/g tissue
- uptake Left kidney [2, 6]: 14.49 ± 3.42 %ID/g tissue
- uptake Liver [2, 6]: 1.71 ± 1.02 %ID/g tissue
- uptake Lung [2, 6]: 0.28 ± 0.05 %ID/g tissue
- uptake Muscle [2, 6]: 0.22 ± 0.02 %ID/g tissue
- uptake Pancreas [2, 6]: 0.26 ± 0.11 %ID/g tissue
- uptake Right kidney [2, 6]: 14.27 ± 3.35 %ID/g tissue
- uptake Spleen [2, 6]: 0.16 ± 0.04 %ID/g tissue
- uptake Stomach (empty) [2, 6]: 0.95 ± 0.50 %ID/g tissue
- uptake Tumor [2, 6]: 1.68 ± 0.13 %ID/g tissue
- tumor/liver ratio ([2]; liver including gallbladder, 60 min p.i.): 0.98
- uptake Appendix [3]: 0.20 ± 0.11 %ID/g tissue
- uptake Blood [3]: 0.29 ± 0.29 %ID/g tissue
- uptake Heart [3]: 0.32 ± 0.21 %ID/g tissue
- uptake Inguinal lymph nodes [3]: 0.93 ± 0.67 %ID/g tissue
- uptake Intestines (empty) [3]: 1.67 ± 1.12 %ID/g tissue
- uptake Left kidney [3]: 19.90 ± 8.63 %ID/g tissue
- uptake Liver [3]: 1.51 ± 1.26 %ID/g tissue
- uptake Lung [3]: 0.36 ± 0.16 %ID/g tissue
- uptake Muscle [3]: 0.26 ± 0.13 %ID/g tissue
- uptake Pancreas [3]: 0.33 ± 0.20 %ID/g tissue
- uptake Right kidney [3]: 20.55 ± 9.71 %ID/g tissue
- uptake Spleen [3]: 0.15 ± 0.09 %ID/g tissue
- uptake Stomach (empty) [3]: 0.71 ± 0.24 %ID/g tissue
- non-specific binding [4]: lower non-specific binding

SMILES: C#CCNC(C[18F])C(=O)O (stereo not drawn) [^18F-Alakyne]
- logD7.4 Value [5]: −1.18 ± 0.03
